What was measured:
Test in all cases: combination Emax (second highest fraction inhibited in the dose matrix, 72 h); higher = more inhibition; extreme values may be limits of the assay
[1] = test system: COLO-678 (Colorectal Carcinoma)
In short: (§1)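 Bliss excess equals the observed combination effect minus the expected value EA + EB − EA·EB, where EA and EB are the effects of each agent alone. Combination Emax is the second-highest inhibition within the matrix. Inhibition was scaled from CellTiter-Glo 2.0 luminescence, with 0 set by vehicle wells and 1 by blank wells, after 72 hours of two-drug dosing of cells plated in 1536-well plates.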

[2] = test system: MS751 (Cervical Carcinoma)
In short: as §1

[3] = test system: DiFi (Colorectal Carcinoma)
In short: as §1

[4] = test system: EVSA-T (Breast Carcinoma)
In short: as §1

[5] = test system: ES1 (Ewing's Sarcoma)
In short: as §1

[6] = test system: TC-71 (Ewing's Sarcoma)
In short: as §1

[7] = test system: L-540 (Hodgkin's Lymphoma)
In short: as §1

[8] = test system: WIL2-NS (Non-Cancerous)
In short: as §1

[9] = test system: KARPAS-45 (T-Lymphoblastic Leukemia)
In short: as §1

[10] = test system: TE-6 (Esophageal Squamous Cell Carcinoma)
In short: as §1

[11] = test system: KYSE-180 (Esophageal Squamous Cell Carcinoma)
In short: as §1

[12] = test system: LN-18 (Glioblastoma)
In short: as §1

[13] = test system: SR (Other Blood Carcinomas)
In short: as §1

[14] = test system: KM12 (Colorectal Carcinoma)
In short: as §1

[15] = test system: BL-41 (Burkitt's Lymphoma)
In short: as §1

[16] = test system: NCI-H847 (Small Cell Lung Carcinoma)
In short: as §1

[17] = test system: SU-DHL-8 (B-Cell Non-Hodgkin's Lymphoma)
In short: as §1

[18] = test system: MEL-JUSO (Melanoma)
In short: as §1

[19] = test system: DND-41 (T-Lymphoblastic Leukemia)
In short: as §1

[20] = test system: WM-115 (Melanoma)
In short: as §1

SMILES | combination Emax [1] | combination Emax [2] | combination Emax [3] | combination Emax [4] | combination Emax [5] | combination Emax [6] | combination Emax [7] | combination Emax [8] | combination Emax [9] | combination Emax [10] | combination Emax [11] | combination Emax [12] | combination Emax [13] | combination Emax [14] | combination Emax [15] | combination Emax [16] | combination Emax [17] | combination Emax [18] | combination Emax [19] | combination Emax [20]
CN(CCO)CC[C@H](CSc1ccccc1)Nc1ccc(S(=O)(=O)NC(=O)c2ccc(N3CCC([C@@H](O)c4ccccc4-c4ccc(Cl)cc4)CC3)cc2)cc1S(=O)(=O)C(F)(F)F [AZD4320] + C[C@@H](Nc1cc(F)cc(F)c1)c1cc(C(=O)N(C)C)cc2c(=O)cc(N3CCOCC3)oc12 [AZD8186] (first compound max 1 µM, 7x7, partner max 3 µM) | 0.344 | 0.3 | 0.961 | 0.885 | 0.725 | 1 | 0.668 | 0.652 | 1 | 0.563 | 0.177 | 0.555 | 0.713 | 0.315 | 0.745 | 1 | 1 | 0.428 | 1 | 0.914
CC1(C)CCC(CN2CCN(c3ccc(C(=O)NS(=O)(=O)c4ccc(NCC5CCOCC5)c([N+](=O)[O-])c4)c(Oc4cnc5[nH]ccc5c4)c3)CC2)=C(c2ccc(Cl)cc2)C1 [Venetoclax] + C1CN(CCC1(C(=O)N[C@@H](CCO)C2=CC=C(C=C2)Cl)N)C3=NC=NC4=C3C=CN4 [Capivasertib] (first compound max 1 µM, 7x7, partner max 3 µM) | 0.0815 | 0.138 | 0.34 | 0.855 | 0.547 | 0.257 | 0.638 | 0.912 | 0.81 | 0.503 | 0.312 | 0.365 | 0.835 | 0.501 | 0.252 | 0.829 | 0.254 | 0.204 | 0.921 | 0.397
CCc1c2c(nc3ccc(O)cc13)-c1cc3c(c(=O)n1C2)COC(=O)[C@]3(O)CC [SN-38] + CN(C)CCCOc1ccc(-c2ccc3ncc4c(c3c2)n(C2CCOCC2)c(=O)n4C)cn1 [AZD0156] (first compound max 0.3 µM, 7x7, partner max 1 µM) | 0.268 | 0.883 | 0.669 | 0.421 | 1 | 1 | 0.951 | 1 | 0.305 | 0.313 | 0.411 | 0.617 | 0.994 | 0.716 | 1 | 0.976 | 0.992 | 0.263 | 0.934 | 0.43
Cc1c2c(nn1C)CSCc1cc(n(C)n1)CSc1cc(c3ccccc3c1)OCCCc1c(C(=O)O)n(C)c3c-2c(Cl)ccc13 [AZD5991] + CCN(CCO)CCCOc1ccc2c(Nc3cc(CC(=O)Nc4cccc(F)c4)[nH]n3)ncnc2c1 [AZD2811] (first compound max 1 µM, 7x7, partner max 1 µM) | 0.227 | 0.855 | 0.859 | 1 | 0.983 | 0.848 | 1 | 0.339 | 1 | 0.715 | 0.942 | 0.701 | 0.988 | 0.249 | 1 | 0.973 | 0.931 | 0.592 | 0.21 | 0.232

— the supplement of paper PMC11061612
